Laboratory results: the NIST ThermoML archive (doi:10.1021/je0500375)
± gives the expanded uncertainty stated by the source.

Experiment: activity coefficient (dimensionless); of the first substance listed, at infinite dilution; xn = mol fraction of the nth substance listed
Settings: 101.33 kPa, Liquid, Chromatography, x1 = 0

Structure (SMILES): C1CCCCCC1 [cycloheptane] + CCCCCCCCOS(=O)(=O)[O-].CCCCn1cc[n+](C)c1
- activity coefficient (298.15 K): 5.43 ± 0.37
- activity coefficient (313.15 K): 5.52 ± 0.38
- activity coefficient (328.15 K): 5.68 ± 0.39

Structure (SMILES): CCCCCCCC [octane] + CCCCCCCCOS(=O)(=O)[O-].CCCCn1cc[n+](C)c1
- activity coefficient (298.15 K): 9.63 ± 0.66
- activity coefficient (313.15 K): 9.96 ± 0.68
- activity coefficient (328.15 K): 10.3 ± 0.7

Structure (SMILES): CCCCCC [hexane] + CCCCCCCCOS(=O)(=O)[O-].CCCCn1cc[n+](C)c1
- activity coefficient (298.15 K): 7.21 ± 0.49
- activity coefficient (313.15 K): 7.59 ± 0.52
- activity coefficient (328.15 K): 7.98 ± 0.54

Structure (SMILES): Cc1ccccc1 [toluene] + CCCCCCCCOS(=O)(=O)[O-].CCCCn1cc[n+](C)c1
- activity coefficient (298.15 K): 1.98 ± 0.13
- activity coefficient (313.15 K): 2.02 ± 0.14
- activity coefficient (328.15 K): 2.08 ± 0.14

Structure (SMILES): CO [methanol] + CCCCCCCCOS(=O)(=O)[O-].CCCCn1cc[n+](C)c1
- activity coefficient (298.15 K): 0.386 ± 0.033
- activity coefficient (313.15 K): 0.369 ± 0.033
- activity coefficient (328.15 K): 0.36 ± 0.033

Structure (SMILES): ClC(Cl)(Cl)Cl [tetrachloromethane] + CCCCCCCCOS(=O)(=O)[O-].CCCCn1cc[n+](C)c1
- activity coefficient (298.15 K): 1.65 ± 0.11
- activity coefficient (313.15 K): 1.74 ± 0.12
- activity coefficient (328.15 K): 1.85 ± 0.12

Structure (SMILES): C1CCCC1 [cyclopentane] + CCCCCCCCOS(=O)(=O)[O-].CCCCn1cc[n+](C)c1
- activity coefficient (298.15 K): 4.09 ± 0.28
- activity coefficient (313.15 K): 4.24 ± 0.29
- activity coefficient (328.15 K): 4.39 ± 0.3

Structure (SMILES): C#CCCCCC [1-heptyne] + CCCCCCCCOS(=O)(=O)[O-].CCCCn1cc[n+](C)c1
- activity coefficient (298.15 K): 2.66 ± 0.18
- activity coefficient (313.15 K): 2.85 ± 0.19
- activity coefficient (328.15 K): 3.08 ± 0.21

Structure (SMILES): CCCCC [pentane] + CCCCCCCCOS(=O)(=O)[O-].CCCCn1cc[n+](C)c1
- activity coefficient (298.15 K): 6.63 ± 0.45
- activity coefficient (313.15 K): 7.14 ± 0.49

Structure (SMILES): C=CCCCC [hex-1-ene] + CCCCCCCCOS(=O)(=O)[O-].CCCCn1cc[n+](C)c1
- activity coefficient (298.15 K): 5.43 ± 0.37
- activity coefficient (313.15 K): 5.76 ± 0.39
- activity coefficient (328.15 K): 6.13 ± 0.42

Structure (SMILES): C1CCCCC1 [cyclohexane] + CCCCCCCCOS(=O)(=O)[O-].CCCCn1cc[n+](C)c1
- activity coefficient (298.15 K): 4.92 ± 0.34
- activity coefficient (313.15 K): 5.02 ± 0.34
- activity coefficient (328.15 K): 5.17 ± 0.35

Structure (SMILES): C#CCCCC [1-hexyne] + CCCCCCCCOS(=O)(=O)[O-].CCCCn1cc[n+](C)c1
- activity coefficient (298.15 K): 2.25 ± 0.15
- activity coefficient (313.15 K): 2.38 ± 0.16
- activity coefficient (328.15 K): 2.56 ± 0.17

Structure (SMILES): CCCCCCC [heptane] + CCCCCCCCOS(=O)(=O)[O-].CCCCn1cc[n+](C)c1
- activity coefficient (298.15 K): 8.27 ± 0.56
- activity coefficient (313.15 K): 8.58 ± 0.59
- activity coefficient (328.15 K): 9 ± 0.61

Structure (SMILES): C=CCCCCCC [oct-1-ene] + CCCCCCCCOS(=O)(=O)[O-].CCCCn1cc[n+](C)c1
- activity coefficient (298.15 K): 7.38 ± 0.5
- activity coefficient (313.15 K): 7.53 ± 0.51
- activity coefficient (328.15 K): 7.88 ± 0.54

Structure (SMILES): c1ccccc1 [benzene] + CCCCCCCCOS(=O)(=O)[O-].CCCCn1cc[n+](C)c1
- activity coefficient (298.15 K): 1.42 ± 0.09
- activity coefficient (313.15 K): 1.44 ± 0.09
- activity coefficient (328.15 K): 1.45 ± 0.1

Structure (SMILES): C#CCCCCCC [1-octyne] + CCCCCCCCOS(=O)(=O)[O-].CCCCn1cc[n+](C)c1
- activity coefficient (298.15 K): 3.25 ± 0.22
- activity coefficient (313.15 K): 3.42 ± 0.23
- activity coefficient (328.15 K): 3.65 ± 0.25
